The values that follow come from ChEMBL document CHEMBL5356936, “Restoring susceptibility to aminoglycosides: identifying small molecule inhibitors of enzymatic inactivation” (RSC Med Chem, 2023).

Molecules are shown by their SMILES.

Test [1] can be described thus: Inhibition of Aminoglycoside N-acetyltransferases (unknown origin).
Test [2] can be described thus: Inhibition of Histone acetyltransferase in human Huh-7.5.1 cells assessed as hepatitis C virus-induced EGF mRNA level measured after 72 hrs. The following applies: Huh-7.5.1, 72 h.

As usually defined, the IC50 is the concentration needed to halve the response being measured. `CC(CCN[C@H](CN[C@H](CO)CN1CCC[C@H]1CN[C@H](CN)c1ccccc1)c1ccccc1)c1ccccc1` (some centres not stated) showed an IC50 in test [1] of 2100 nM. Turning to `O=C(CCCN1CCC(O)(c2ccc(Cl)cc2)CC1)c1ccc(F)cc1` [HALOPERIDOL], the IC50 in test [2] was determined as 390 nM.
